What all share (format): functional
The subject of experiment [1] is Candida albicans. Nature of the experiment: Synergistic antifungal activity against FCZ-resistant Candida albicans strain 901 assessed as fractional inhibitory concentration index measured after 48 hrs in presence of FCZ by CLSI based micro-dilution broth method. A general note: In broth dilution the organism is exposed to a series of concentrations in liquid medium.

The subject of experiment [2] is Candida albicans. Nature of the experiment: Antifungal activity against FCZ-resistant Candida albicans strain 901 assessed as growth inhibition measured after 48 hrs incubation by CLSI based micro-dilution broth method.
Experiment [3] relates to Candida albicans. Nature of the experiment: Antifungal activity against FCZ-resistant Candida albicans strain 904 assessed as growth inhibition measured after 48 hrs incubation by CLSI based micro-dilution broth method.
The test system of experiment [4] is Candida albicans. Kind of experiment: Antifungal activity against FCZ-resistant Candida albicans strain 904 assessed as growth inhibition in presence of fluconazole measured after 48 hrs incubation by CLSI based micro-dilution broth method.
The subject of experiment [5] is Candida albicans. Kind of experiment: Antifungal activity against FCZ-resistant Candida albicans strain 901 assessed as growth inhibition in presence of fluconazole measured after 48 hrs incubation by CLSI based micro-dilution broth method.
The test system of experiment [6] is Candida albicans. Kind of experiment: Synergistic antifungal activity against FCZ-resistant Candida albicans strain 904 assessed as fractional inhibitory concentration index measured after 48 hrs in presence of FCZ by CLSI based micro-dilution broth method.

Where only a bound is given, the exact number is not on record here.

The MIC80 is an inhibitory concentration at the 80% level, which refers to growth in some studies and to a panel of isolates in others.

Turning to `O=[N+]([O-])c1ccc(O)cc1/C=N/Nc1nc(NCc2ccc(F)cc2)nc(NCc2ccc(F)cc2)n1`, the “fractional inhibitory concentration index (FICI)” value in the experiment on Candida albicans [1] and in the experiment with Candida albicans [6] was 0.25 throughout. Besides, the MIC80 in the experiment on Candida albicans [2] was greater than 64 µg/mL; in the experiment on Candida albicans [3], greater than 64 µg/mL; in the experiment with Candida albicans [4], 8 µg/mL; with Candida albicans [5], 8 µg/mL.

In the case of `Oc1ccc(/C=N/Nc2nc(NCc3ccc(F)cc3)nc(NCc3ccc(F)cc3)n2)cc1`, the “fractional inhibitory concentration index (FICI)” value in the experiment on Candida albicans [1] and with Candida albicans [6] was 0.38 in each case. Moreover, the MIC80 in the experiment with Candida albicans [2] was greater than 64 µg/mL; in the experiment with Candida albicans [3] it was greater than 64 µg/mL; with Candida albicans [4], 16 µg/mL; in the experiment on Candida albicans [5], 16 µg/mL.

As to `Cc1ccccc1/C=N/Nc1nc(NCc2ccc(F)cc2)nc(NCc2ccc(F)cc2)n1`, the “fractional inhibitory concentration index (FICI)” value in the experiment on Candida albicans [1] and in the experiment on Candida albicans [6] was 1.13 throughout. Further, the MIC80 with Candida albicans [2], in the experiment on Candida albicans [3], with Candida albicans [4] and with Candida albicans [5] was greater than 64 µg/mL throughout.

Take `Fc1ccc(CNc2nc(NCc3ccc(F)cc3)nc(N/N=C/c3cccc(Cl)c3)n2)cc1`: the “fractional inhibitory concentration index (FICI)” value in the experiment on Candida albicans [1] and with Candida albicans [6] was 1.13 in each case. Moreover, the MIC80 in the experiment on Candida albicans [2], in the experiment on Candida albicans [3], in the experiment with Candida albicans [4] and in the experiment with Candida albicans [5] was greater than 64 µg/mL throughout.

Consider `O=[N+]([O-])c1ccc(/C=N/Nc2nc(NCc3ccc(F)cc3)nc(NCc3ccc(F)cc3)n2)cc1`, for which the “fractional inhibitory concentration index (FICI)” value with Candida albicans [1] and in the experiment with Candida albicans [6] was 1.13 in each case. Also, the MIC80 in the experiment with Candida albicans [2], in the experiment with Candida albicans [3], with Candida albicans [4] and in the experiment with Candida albicans [5] was greater than 64 µg/mL each time.

Turning to `COc1ccc(/C=N/Nc2nc(NCc3ccc(F)cc3)nc(NCc3ccc(F)cc3)n2)cc1`, the “fractional inhibitory concentration index (FICI)” value in the experiment with Candida albicans [1] and in the experiment with Candida albicans [6] was 1.13 throughout. Besides, the MIC80 with Candida albicans [2], in the experiment with Candida albicans [3], with Candida albicans [4] and in the experiment on Candida albicans [5] was greater than 64 µg/mL in each case.

As for `Cc1ccc(/C=N/Nc2nc(NCc3ccc(F)cc3)nc(NCc3ccc(F)cc3)n2)cc1`, the “fractional inhibitory concentration index (FICI)” value in the experiment with Candida albicans [1] and in the experiment on Candida albicans [6] was 1.13 in each case. Further, the MIC80 with Candida albicans [2], in the experiment with Candida albicans [3], in the experiment on Candida albicans [4] and in the experiment with Candida albicans [5] was greater than 64 µg/mL each time.

As to `O=[N+]([O-])c1c(O)cccc1/C=N/Nc1nc(NCc2ccc(F)cc2)nc(NCc2ccc(F)cc2)n1`, the “fractional inhibitory concentration index (FICI)” value with Candida albicans [1] and in the experiment with Candida albicans [6] was 1.13 in each case. The MIC80 in the experiment on Candida albicans [2], with Candida albicans [3], with Candida albicans [4] and with Candida albicans [5] was greater than 64 µg/mL each time.

As to `Fc1ccc(CNc2nc(NCc3ccc(F)cc3)nc(N/N=C/c3cccc(F)c3)n2)cc1`, the “fractional inhibitory concentration index (FICI)” value in the experiment with Candida albicans [1] and in the experiment on Candida albicans [6] was 1.13 throughout. For the same molecule, the MIC80 in the experiment with Candida albicans [2], in the experiment on Candida albicans [3], in the experiment on Candida albicans [4] and in the experiment with Candida albicans [5] was greater than 64 µg/mL in each case.

Turning to `Fc1ccc(CNc2nc(NCc3ccc(F)cc3)nc(N/N=C/c3ccccc3F)n2)cc1`, the “fractional inhibitory concentration index (FICI)” value with Candida albicans [1] and with Candida albicans [6] was 1.13 throughout. For the same molecule, the MIC80 in the experiment with Candida albicans [2], with Candida albicans [3], with Candida albicans [4] and in the experiment on Candida albicans [5] was greater than 64 µg/mL throughout.

As for `O=[N+]([O-])c1cccc(/C=N/Nc2nc(NCc3ccc(F)cc3)nc(NCc3ccc(F)cc3)n2)c1`, the “fractional inhibitory concentration index (FICI)” value in the experiment on Candida albicans [1] and in the experiment with Candida albicans [6] was 1.13 each time. Also, the MIC80 in the experiment with Candida albicans [2], with Candida albicans [3], with Candida albicans [4] and in the experiment on Candida albicans [5] was greater than 64 µg/mL throughout.

As for `Fc1ccc(CNc2nc(NCc3ccc(F)cc3)nc(N/N=C/c3ccccc3Cl)n2)cc1`, the “fractional inhibitory concentration index (FICI)” value in the experiment with Candida albicans [1] and in the experiment with Candida albicans [6] was 1.13 throughout. Besides, the MIC80 in the experiment with Candida albicans [2], with Candida albicans [3], in the experiment on Candida albicans [4] and in the experiment on Candida albicans [5] was greater than 64 µg/mL each time.

For the molecule `Fc1ccc(/C=N/Nc2nc(NCc3ccc(F)cc3)nc(NCc3ccc(F)cc3)n2)cc1`, the “fractional inhibitory concentration index (FICI)” value in the experiment on Candida albicans [1] and in the experiment on Candida albicans [6] was 1.13 throughout. In addition, the MIC80 in the experiment on Candida albicans [2], in the experiment on Candida albicans [3], with Candida albicans [4] and in the experiment on Candida albicans [5] was greater than 64 µg/mL each time.

Take `Fc1ccc(CNc2nc(NCc3ccc(F)cc3)nc(N/N=C/c3ccc(C(F)(F)F)cc3)n2)cc1`: the “fractional inhibitory concentration index (FICI)” value with Candida albicans [1] and in the experiment with Candida albicans [6] was 1.13 in each case. In addition, the MIC80 in the experiment on Candida albicans [2], with Candida albicans [3], with Candida albicans [4] and with Candida albicans [5] was greater than 64 µg/mL throughout.

In the case of `O=[N+]([O-])c1ccc(/C=N/Nc2nc(NCc3ccc(F)cc3)nc(NCc3ccc(F)cc3)n2)cc1O`, the “fractional inhibitory concentration index (FICI)” value in the experiment with Candida albicans [1] and in the experiment on Candida albicans [6] was 0.19 in each case. Moreover, the MIC80 with Candida albicans [2] was greater than 64 µg/mL; with Candida albicans [3] it was greater than 64 µg/mL; in the experiment on Candida albicans [4], 4 µg/mL; in the experiment on Candida albicans [5] it was 4 µg/mL.

Turning to `N#Cc1ccc(/C=N/Nc2nc(NCc3ccc(F)cc3)nc(NCc3ccc(F)cc3)n2)cc1`, the “fractional inhibitory concentration index (FICI)” value in the experiment on Candida albicans [1] and in the experiment with Candida albicans [6] was 1.13 each time. Further, the MIC80 in the experiment on Candida albicans [2], in the experiment on Candida albicans [3], in the experiment on Candida albicans [4] and in the experiment with Candida albicans [5] was greater than 64 µg/mL each time.

As for `Fc1ccc(CNc2nc(NCc3ccc(F)cc3)nc(N/N=C/c3ccc(OC(F)(F)F)cc3)n2)cc1`, the “fractional inhibitory concentration index (FICI)” value in the experiment with Candida albicans [1] and in the experiment on Candida albicans [6] was 1.13 throughout. The MIC80 in the experiment with Candida albicans [2], with Candida albicans [3], in the experiment on Candida albicans [4] and in the experiment on Candida albicans [5] was greater than 64 µg/mL in each case.

On to `Cc1cccc(/C=N/Nc2nc(NCc3ccc(F)cc3)nc(NCc3ccc(F)cc3)n2)c1`, for which the “fractional inhibitory concentration index (FICI)” value in the experiment on Candida albicans [1] and with Candida albicans [6] was 1.13 throughout. The MIC80 with Candida albicans [2], in the experiment with Candida albicans [3], in the experiment on Candida albicans [4] and in the experiment on Candida albicans [5] was greater than 64 µg/mL throughout.

For `Fc1ccc(CNc2nc(NCc3ccc(F)cc3)nc(N/N=C/c3ccc(Br)cc3)n2)cc1`, the “fractional inhibitory concentration index (FICI)” value in the experiment with Candida albicans [1] and in the experiment on Candida albicans [6] was 1.13 in each case. In addition, the MIC80 with Candida albicans [2], with Candida albicans [3], in the experiment on Candida albicans [4] and with Candida albicans [5] was greater than 64 µg/mL throughout.

`Oc1cccc(/C=N/Nc2nc(NCc3ccc(F)cc3)nc(NCc3ccc(F)cc3)n2)c1`: the “fractional inhibitory concentration index (FICI)” value in the experiment on Candida albicans [1] and in the experiment with Candida albicans [6] was 0.25 each time. For the same molecule, the MIC80 was greater than 64 µg/mL with Candida albicans [2], greater than 64 µg/mL in the experiment with Candida albicans [3], 8 µg/mL with Candida albicans [4] and 8 µg/mL with Candida albicans [5].

The values above are taken from ChEMBL document CHEMBL5528067, “From Synergy to Monotherapy: Discovery of Novel 2,4,6-Trisubstituted Triazine Hydrazone Derivatives with Potent Antifungal Potency In Vitro and In Vivo” (J Med Chem, 2024).
